Biological target: C-X-C chemokine receptor type 4 (Homo sapiens, UniProt P61073)
Assay: Displacement of fluorescently-labeled-TZ14011 from CXCR4 in human Jurkat cells incubated for 30 mins by fluorescence analysis
Assay type: cell-based

Sequence of C-X-C chemokine receptor type 4 (P61073 whole entry): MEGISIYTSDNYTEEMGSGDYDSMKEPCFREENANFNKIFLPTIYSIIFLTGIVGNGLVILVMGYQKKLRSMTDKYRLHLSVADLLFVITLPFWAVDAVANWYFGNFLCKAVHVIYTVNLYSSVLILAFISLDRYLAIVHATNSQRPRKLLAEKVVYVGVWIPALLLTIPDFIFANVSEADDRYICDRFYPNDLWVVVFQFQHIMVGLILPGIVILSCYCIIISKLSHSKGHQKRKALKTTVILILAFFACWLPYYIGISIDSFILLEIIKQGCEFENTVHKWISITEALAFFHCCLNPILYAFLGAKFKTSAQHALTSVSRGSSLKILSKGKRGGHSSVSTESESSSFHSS

| IC50 [µM] | Compound |
| --- | --- |
| 0.044 | CC(=O)N[C@@H](CCCCNC(=O)CSC[C@H]1NC(=O)[C@H](Cc2ccc3ccccc3c2)NC(=O)[C@H](CCCNC(=N)N)NC(=O)[C@H](CCCNC(=N)N)NC(=O)[C@@H](Cc2ccc(O)cc2)NC1=O)C(=O)N1CCC[C@H]1C(=O)N1CCC[C@H]1C(=O)N1CCC[C@H]1C(=O)N1CCC[C@H]1C(=O)N1CCC[C@H]1C(=O)N1CCC[C@H]1C(=O)N1CCC[C@H]1C(=O)N1CCC[C@H]1C(=O)N1CCC[C@H]1C(=O)N1CCC[C@H]1C(=O)N1CCC[C@H]1C(=O)N1CCC[C@H]1C(=O)N1CCC[C@H]1C(=O)N1CCC[C@H]1C(=O)N1CCC[C@H]1C(=O)N1CCC[C@H]1C(=O)N1CCC[C@H]1C(=O)N1CCC[C@H]1C(=O)N[C@@H](CCCCNC(=O)CS[C@H]1NC(=O)[C@H](Cc2ccc3ccccc3c2)NC(=O)[C@H](CCCNC(=N)N)NC(=O)[C@H](CCCNC(=N)N)NC(=O)[C@@H](Cc2ccc(O)cc2)NC1=O)C(N)=O |
| 0.086 | [N-]=[N+]=NCCCCCC(=O)NCCCC(=O)N[C@@H](CCCCNC(=O)CSC[C@H]1NC(=O)[C@H](Cc2ccc3ccccc3c2)NC(=O)[C@H](CCCNC(=N)N)NC(=O)[C@H](CCCNC(=N)N)NC(=O)[C@@H](Cc2ccc(O)cc2)NC1=O)C(=O)N1CCC[C@H]1C(=O)N1CCC[C@H]1C(=O)N1CCC[C@H]1C(=O)N1CCC[C@H]1C(=O)N1CCC[C@H]1C(=O)N1CCC[C@H]1C(=O)N1CCC[C@H]1C(=O)N1CCC[C@H]1C(=O)N1CCC[C@H]1C(=O)N1CCC[C@H]1C(=O)N1CCC[C@H]1C(=O)N1CCC[C@H]1C(=O)N1CCC[C@H]1C(=O)N1CCC[C@H]1C(=O)N1CCC[C@H]1C(=O)N1CCC[C@H]1C(=O)N1CCC[C@H]1C(=O)N1CCC[C@H]1C(=O)N[C@@H](CCCCNC(=O)CS[C@@H]1NC(=O)[C@H](Cc2ccc3ccccc3c2)NC(=O)[C@H](CCCNC(=N)N)NC(=O)[C@H](CCCNC(=N)N)NC(=O)[C@@H](Cc2ccc(O)cc2)NC1=O)C(N)=O |
